From patent publication US20200062738A1, “ANTI-CANCER STEMNESS DRUGS” (Development Center for Biotechnology, priority 2017, published 2020) come the findings set out here.

Molecules are shown by their SMILES.

In assay [1] the test system is BMI-1. As to the kind of experiment: BMI-1 protein expression by western blot in H1975 cells. The format is cell-based, human. The settings on record: for BMI-1 protein expression: 10 μM, 6 h, western blot; for inhibition of BMI-1 expression, dose dependence: different concentrations, western blot (#44: 6 h). As for the experimental part:
(§1) The abilities of compounds of the invention to inhibit BMI-1/MCl-1 expressions were assayed with cell cultures. BMI-1 and MCL-1 are overexpressed in many cancers, such as lung cancer cell line H1975. Therefore, cancer cells that overexpress BMI-1/MCL-1 provide a convenient platform for assaying BMI-1/MCL-1 inhibition.
(§2) After drug treatments, cells were washed twice with PBS, scraped, and resuspended in RIPA buffer containing protease inhibitors (20 mM Tris-HCl pH 7.5, 150 mM NaCl, 1 mM Na2EDTA, 1 mM EGTA, 1% NP-40, 1% sodium deoxycholate, 2.5 mM sodium pyrophosphate, 1 mM b-glycerophosphate, 1 mM Na3VO4, 1 μg/ml leupeptin). Cell lysate was sonicated for 5-10 min, and centrifuged at 14000 rpm for 20 minutes at 4° C. The supernatant was collected, determined for protein concentrations, and stored at −80° C. before further use.
(§3) BMI-1/MCL-1 expression levels may be assessed with western blot analysis. […] The denatured protein samples were then loaded in 10% Tris-Glycine SDS polyacrylamide gel for separating proteins. The power supply for the running condition was set at 80 V for running stacking gel and 100 V for separating gel, respectively. […] The power supply for the transfer condition was set at 300 mA, and the transfer was carried out on ice for 2.5 hours. The nitrocellulose membranes containing the denatured proteins were blocked with a solution containing 5% skim milk at room temperature for 1 hour.
After blocking, the membranes were washed with TBS containing 0.1% Tween-20 (TBST) for 5 minutes. […] After washing with TBST (5 min×3), the membranes were incubated with the secondary antibody (HRP-conjugated anti-mouse IgG, Jackson ImmunoReserch LABORATORIES INC., 1:5000) at room temperature for 1 hour. After washing with TBST (5 min×5), the membranes were incubated with chemiluminescence regent for 1 minute and imaged with a Bioluminiscent imaging system (Biospectrum-AC w/Bio Chemi Camera, UVP).
For orientation: In western blotting, separated proteins are transferred to a membrane and probed.

For assay [2], the system named is MCL-1. As to the kind of experiment: MCL-1 protein expression by western blot in H1975 cells. The format is cell-based, human. To be noted: for MCL-1 protein expression: 10 μM, 6 h, western blot; for inhibition of MCL-1 expression, dose dependence: different concentrations, western blot (#44: 6 h). As for the experimental part: as §1, §2, §3
In addition, the membranes were also probed with antibodies against MCL-1 and tubulin. Tubulin functions as an internal control to assess the relative loadings in different lanes on the gel. Myeloid cell leukemia 1 (MCL1) is a pro-survival protein overexpressed in many cancers.

The test system of assay [3] is H1975-Luc cells. As to the kind of experiment: In vivo anti-tumor test, orthotopic H1975-Luc mouse tumor model (FIG. 3). To be noted: 1 mpk IV tail vein, 5 times/7 days, 3 weeks. Details: species or system SCID mice. From the text: Mice were orthotopically implanted with H1975-luc cells (10^6 cells/mouse), and started to receive drug treatments for 3 weeks. The tumor growths were followed by non-invasive bioluminescent imaging, and quantified. […] Tarceva ([…]) was administrated orally (20 mpk, 5 times/7 days). N=5 to 7 for each group.
The derivatives showing potent anti-BMI-1/MCL-1 effects, such as compounds #43-45 (BI-43-BI-45), were selected for further in vivo anti-tumor test. The in vivo mouse tumor model was established as described below. • 1. SCID mice (70 mice, about […]) were quarantined for one week before lung cancer cells are implanted into their chest cavities. • 2. Before implanting the cancer cells into the mouse chest cavities, the mice were anesthetized with gas anesthesia. The mice were placed in a transparent acrylic box of 20 cm×10 cm×10 cm, which was connected with a flexible tubing to an anesthesia machine and an oxygen tank. Then, an appropriate amount of anesthesia (Isoflurane) was introduced into the anesthesia machine and the valve is open. […] One week after intra-thoracic implant of cancer cells, a luminescence reagent (D-luciferin) was injected into the abdominal cavities of the mice. […]
After establishment of the tumors in mice, the test compounds were administered at the indicated doses and the tumor sizes were monitored using bioluminescence. […]

Assay [4] concerns H1975-luc cells. As to the kind of experiment: Orthotopic H1975-luc model, treatment starting 2 days after tumor implantation (FIG. 4). The class given is in vivo, mice. To be noted: for tumor-free rate: 3 mpk IV, 5 times/week. From the text: Mice were orthotopically implanted with H1975-luc cells (10^6 cells/mouse). On day 0 (defined as 2 days after tumor implantation), mice were given drug treatments for 4 weeks (5 times/week), and the tumor formations were followed by non-invasive imaging on days 14 and 28.
(§4) The mouse cancer models were generated as described above. Orthotopic H1975-Luc model was described as previous study. BI-44 was administrated by IV injection through tail vein, 5 times/7 days, with the doses indicated on the figure. Gefitinib and Afatinib were administrated orally, 5 times/7 days, with the dose of 20 mpk (mg/Kg).
In the first animal model, Mice were orthotopically implanted with H1975-luc cells (10^6 cells/mouse). On day 0 (defined as 2 days after tumor implantation), mice were started to receive drug treatments for 4 weeks (5 times/week), and the tumor formations were followed by non-invasive imaging on day 14 and 28.
BI-44 was administrated starting 2 days after orthotopic lung tumor implantation according to the administration scheme shown in FIG. 4A, and the tumor formations were evaluated via non-invasive bioluminescent imaging on days 14 and 28.

The subject of assay [5] is H1975-luc cells. As to the kind of experiment: Orthotopic H1975-Luc model, treatment starting 3 weeks after tumor implantation (FIG. 5). The format is in vivo, mice. To be noted: for tumor inhibition rate: day 21.
From the text: Mice were orthotopically implanted with H1975-luc cells (10^6 cells/mouse). On day 0 (defined as 3 weeks after tumor implantation), mice were imaged and started to receive drug treatments for 3 weeks (5 times/week). The tumor growths were followed by non-invasive imaging weekly.
as §4
In the second model, BI-44 was administrated starting 3 weeks after tumor implantation (FIG. 5A) when all the mice contained defined luciferase signals in lungs. Then, tumor growths were followed for 3 weeks (FIG. 5A). Mice were orthotopically implanted with H1975-Luc cells (10^6 cells/mouse). On day 0 (defined as 3 weeks after tumor implantation), mice were imaged and started to receive drug treatments for 3 weeks (5 times/week). The tumor growths were followed by non-invasive imaging weekly.

Turning to `O=C(Nc1cccc(Cl)c1)Nc1cccc(-c2cccc3cc[nH]c23)c1` [Compound 45], the BMI-1 protein expression result in assay [1] is “significantly reduced”. For the same compound, the MCL-1 protein expression result in assay [2] is “significantly reduced”.

`CCc1ccc(C(=O)Nc2cccc(-c3cccc4cc[nH]c34)c2)cc1` [Compound 44, N-(3-(1H-indol-7-yl)phenyl)-4-ethylbenzamide]: the BMI-1 protein expression result in assay [1] is recorded as “significantly reduced”. Also, the “inhibition of BMI-1 expression, dose dependence” value in assay [1] is “inhibits the expressions of BMI-1 and MCL-1 in a dose-dependent manner”; in assay [1] (listed as #44) it was “effectively inhibited the expressions of BMI-1 and MCL-1 at sub-μM concentrations”. Besides, the MCL-1 protein expression result in assay [2] is given as “significantly reduced”. The “inhibition of MCL-1 expression, dose dependence” value in assay [2] was “inhibits the expressions of BMI-1 and MCL-1 in a dose-dependent manner”; in assay [2] (listed as #44) it was “effectively inhibited the expressions of BMI-1 and MCL-1 at sub-μM concentrations”. The “anti-tumor growth effects (bioluminescence)” value in assay [3] is “most significant anti-tumor growth effects”. Besides, the tumor-free rate in assay [4] (day 14) is reported as 62.5%; in assay [4] (day 28), 37.5%. Besides, the “tumor inhibition rate as compared to control” value in assay [4] (BI-44 3 mpk IV, day 28) is given as “around 80%”. For the same compound, the “bioluminescent intensities in mice lungs” value in assay [4] (BI-44 3 mpk IV, days 14 and 28) is “significantly reduced bioluminescent intensities”. Further, the tumor inhibition rate result in assay [5] (3 mpk IV) and in assay [5] (9 mpk IV) was “around 90%” each time. Besides, in assay [5] (IV 5 times/week for 3 weeks, 1, 3, 9 mpk), the tumor growth inhibition result is “significantly inhibited tumor growth in a dose-dependent manner”.

Regarding `COc1cc(Br)c(Nc2nc(-c3c(C)nc4ncccn34)cs2)c(Br)c1` [Compound 43], the BMI-1 protein expression entry in assay [1] is listed as “significantly reduced”. Besides, the MCL-1 protein expression result in assay [2] is on record as “significantly reduced”.

Take `CN(C)C/C=C/C(=O)Nc1cc2c(Nc3ccc(F)c(Cl)c3)ncnc2cc1O[C@H]1CCOC1` [Afatinib, reference compound]: in assay [4] (Afatinib 20 mpk orally, day 28), the “tumor inhibition rate as compared to control” value is “around 80%”.
